One experiment deals with food consumption. Description: Action on the alimentary intake in a rat. The experiment is classed as in vivo. The conditions noted are these: 10 mg/kg intraperitoneal, consumption followed hourly for 5 hours. How it is done: The tests were carried out on groups of 5 rats weighing 250 g±10 g and the animals were individually placed in cages with a trough as described by Fregly (J. Appl. Physiol Vol. 15 (1960), p. 539) which avoided wasting of the powdered foodstuffs. The rats were accustomed to taking their daily portion over 5 consecutive hours with as much drinking water as desired being offered in glass feeding bottles. The quantities of food ingested were determined individually by the weight of the troughs and the comsumptions were followed hourly for 5 hours after intraperitoneal administration of 10 mg/kg of the compound. The quantities consumed are expressed in g/100 g of body weight per hour. The averages are compared to those obtained with control animals by a DUNNETT test.

A further experiment concerns the target T1, Peripheral CCK receptors (Rattus norvegicus, UniProt P30551).
T1 construct: The pancreases of 3 male rats weighing 150-200 g were removed and ground up with Polytron; from tissue; host or cells: rat pancreas homogenate (30,000 g pellet)
T1 sequence (P30551 1-444): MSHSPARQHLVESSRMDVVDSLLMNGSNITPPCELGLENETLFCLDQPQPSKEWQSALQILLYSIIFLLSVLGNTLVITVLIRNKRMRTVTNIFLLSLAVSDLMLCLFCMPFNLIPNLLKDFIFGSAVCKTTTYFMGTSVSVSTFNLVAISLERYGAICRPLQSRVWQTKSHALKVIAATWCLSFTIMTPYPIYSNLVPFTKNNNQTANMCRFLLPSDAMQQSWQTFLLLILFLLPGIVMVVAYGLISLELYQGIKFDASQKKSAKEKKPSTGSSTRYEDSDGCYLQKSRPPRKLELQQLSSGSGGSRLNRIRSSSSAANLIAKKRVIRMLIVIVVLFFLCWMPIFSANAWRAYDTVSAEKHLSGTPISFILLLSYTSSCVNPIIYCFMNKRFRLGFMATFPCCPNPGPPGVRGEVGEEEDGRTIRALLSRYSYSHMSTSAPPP
Description: Peripheral receptors: 3H CCK8 binding, rat pancreas homogenate. How it is done:
The pancreases of 3 male rats weighing 150-200 g were removed and ground up with Polytron (4 grindings, speed 3, with an interval of 10 seconds between the grindings) and the homogenate was filtered through a gauze and then centrifuged at 30,000 g for 30 minutes. The residues obtained were taken up in 400 volumes (600 ml) of Tris 50 mM HCl pH 7.4 buffer containing BSA 2 g/l., bacitracin 0.1 mM, MgCl2 5 mM, dithiothreitol 5 mM. 2 ml aliquots of the homogenate were incubated at 25° C. for 60 minutes in the presence of […] 3H CCK8 and of the test product (10,000 μM for 1 dose, or with one range of 7 doses) and of cold CCK8 (10^-6 M) which was the reference product. After returning to 0° C., the aliquots were filtered on Whatman GF/B filters, pre-washed in a solution of polyethylene imine at 0.05% and washed with 3×5 ml of buffer Tris HCl 50 mM, pH 7.4. The results were expressed in IC50, the concentration necessary to inhibit by 50% the fixed specific radioactivity, IC50 n mol

Another experiment has as its target T2, Central CCK receptors (Rattus norvegicus, UniProt P30553).
T2 construct: The cortices of 20 male rats weighing 150 to 200 g were removed, and were ground up with Polytron in sucrose; from tissue; host or cells: rat cerebral cortex homogenate (washed membrane pellet)
T2 sequence (P30553 1-452): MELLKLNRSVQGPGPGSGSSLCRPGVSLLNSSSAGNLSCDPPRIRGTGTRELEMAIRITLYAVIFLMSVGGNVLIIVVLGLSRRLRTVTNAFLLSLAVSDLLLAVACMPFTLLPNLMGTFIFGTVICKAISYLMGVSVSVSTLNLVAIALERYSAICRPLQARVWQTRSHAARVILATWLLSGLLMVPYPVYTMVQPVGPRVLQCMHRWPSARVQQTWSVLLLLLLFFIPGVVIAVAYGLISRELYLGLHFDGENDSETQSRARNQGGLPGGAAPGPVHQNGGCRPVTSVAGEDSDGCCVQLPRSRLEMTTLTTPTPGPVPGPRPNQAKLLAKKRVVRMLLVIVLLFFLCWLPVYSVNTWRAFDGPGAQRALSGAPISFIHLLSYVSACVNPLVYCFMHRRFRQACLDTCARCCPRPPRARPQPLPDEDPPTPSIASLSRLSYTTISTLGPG
Description: Central receptors: 3H CCK8 binding, rat cortex homogenate. The conditions noted are these: 0.5 nM 3H CCK8, 25° C., 30 minutes. How it is done: The cortices of 20 male rats weighing 150 to 200 g were removed, and were ground up with Polytron in sucrose 0.32M. After centrifuging, the supernatant was recovered and centrifuged. The residues were re-suspended in 120 ml of Hepes buffer pH 7.4 (Hepes 10 mM, NaCl 130 mM, MgCl2, 6H2 O 5 mM, bacitracin 250 mg/l., PMSF 1 mg/l), and re-centrifuged. The residues were taken up in 120 ml of Hepes buffer pH 7.4 and re-centrifuged at 30,000 g for 30 minutes. The residues thus obtained were taken up in 500 ml of Hepes buffer pH 7.4, which enabled 240 aliquots of 2 ml of homogenate to be obtained. The incubation was effected at 25° C. for 30 minutes in the presence of 0.5 nM of 3H CCK8 and the test product (10,000 μM for 1 dose, or with a range of 7 doses or of cold CCK8 (10^-6 M), which was the reference product). After returning the aliquots of the homogenate to 0° C., they were filtered on Whatman GF/B filters and the filters were washed with 3×5 ml of a Tris HCl 50 mM pH 7.4 buffer. The results are expressed is IC50 which is the concentration necessary to inhibit by 50% the fixed specific radioactivity.

For experiment [1], the system named is CCK8-induced contractions of isolated ileum. Description: Action on the isolated ileum of a guinea-pig (antagonism of CCK8 contractions). The conditions noted are these: product 10^-7 M, one minute contact, CCK8 1.10^-8 M. How it is done:
The test was carried out on fragments of ileum from male guinea-pigs placed under a tension of 1 g in a Krebs solution aerated with carbogen and maintained at 37° C. The contractions were recorded with a microdynamometer connected to a polygraph. The ileum was left at rest for 30 minutes and then CCK8 was added to the bath in a concentration of 1.10^-8 M, followed by rinsing. The test product was added to the bath, left in contact with the organ for one minute and then CCK8 (1.10^-8 M) was added to the bath. The possible antagonism was expressed by comparing the contractions caused by the CCK8 before and after contact with the product under test.

Results on two compounds are retold here after patent publication US4988692A, “2,4-dioxo-5-phenyl-2,3,4,5-tetrahydro-1H-1,5-benzodiazepines” (Uclaf; Roussel, priority 1985, dated 1991).

For orientation: IC50 means the concentration that inhibits the measured activity by half. For `CN1C(=O)C(NC(=O)c2cc3ccccc3[nH]2)C(=O)N(c2ccccc2)c2cc(Cl)ccc21` (stereo not drawn) [Example 1, N-(7-chloro-2,4-dioxo-1-methyl-5-phenyl-2,3,4,5-tetrahydro-1H-1,5-benzodiazepin-3-yl)-1H-indole-2-carboxamide], in the experiment with food consumption, the “reduction of food consumption in relation to control animals (anorexigenic activity)” value is reported as “more than 50%”. Besides, the concentration for half-maximal inhibition (IC50) on Peripheral CCK receptors came to 20 nM; at Central CCK receptors, 2200 nM.

Take `CN1C(=O)C(NC(=O)c2cc3ccccc3[nH]2)C(=O)N(c2ccccc2)c2ccccc21` (stereo not drawn) [Example 2]: the “antagonism of contractions caused by CCK8” value in experiment [1] is “significant antagonist activity”. The IC50 at Peripheral CCK receptors was 14 nM; on Central CCK receptors, more than 10000 nM.
